Test results from patent EP4463162B1, “CONNEXIN 43 FOR USE IN TREATING BRCA1/2-MUTATED CANCER” (Fundación Profesor Novoa Santos, priority 2022, dated 2023).
Read-outs that look alike come from different tables or passages of the source.

Legend:
[1] = test system: cleaved caspase 3, PARP-1; conditions: 50 and 100 µM olaparib
Method: Protein extracts were mixed with loading buffer, which consisted of 10 % (v/v) β-mercaptoethanol (Sigma-Aldrich), 10 % SDS, 50 % (v/v) glycerol, 200 mM Tris-HCl pH 6.8 and 0.1 % bromophenol blue (Sigma-Aldrich). They were boiled at 95 °C for 8 min and 20-30 µg protein were loaded into 8, 10 or 15 % acrylamide/bis-acrylamide self-made gels, depending on the molecular weight of the target protein/s to investigate. Gels were run at 80 V for approximately 2 h using a Mini-PROTEAN Tetra electrophoresis system (BioRad), and then transferred to methanol-preactivated polyvinylidene fluoride (PVDF) membranes (Millipore) at 100 V and 4 °C for 1-1.5 h with a Mini Trans-Blot Electrophoretic Transfer Cell (BioRad). Afterwards, membranes with the transferred proteins were stained with ATX Ponceau S red staining solution (Sigma-Aldrich) for 10 min at room temperature, photographed in an Amersham Imager 600 (GE Healthcare) and unstained with distilled water. They were then blocked for 1 h at room temperature with 5 % skim milk (Sigma-Aldrich) diluted in TBST buffer (Tris-buffered saline TBS composed of 20 mM Tris and 150 mM NaCl, supplemented with 0.05 % (v/v) Tween-20, Sigma-Aldrich) with shaking. […] Ponceau staining and western blot images were analysed and their band intensities quantitated with Image J software.

[2] = test system: γH2AX (p-Ser139); experiment: Western blot and immunofluorescence against γH2AX; format: cell-based, human; conditions: Cx43_HCC1937, 50/100 µM olaparib, 96 h, vs basal condition and same treatments in EV_HCC1937
Method: 2 000-10 000 cells were plated on glass coverslips (Thermo Fisher Scientific) previously coated with poly-D-lysine hydrobromide (Sigma-Aldrich) and cultured until they were approximately 80 % confluent. They were washed with PBS, fixed with 4 % paraformaldehyde (PFA, Sigma-Aldrich) in PBS for 15 min at room temperature and rinsed twice with PBS. Next, cells were incubated with 0.1 M glycine (Sigma-Aldrich) in distilled water to quench PFA for 10 min at room temperature, and then their membranes were permeabilized with 0.2 % Triton X-100 (Sigma-Aldrich) in PBS for 10 min at room temperature. After two 5 min PBS washes, potential nonspecific antibody binding sites were blocked with 1 % bovine serum albumin (BSA; Sigma-Aldrich) diluted in PBST (PBS+0.1 % Tween 20; Sigma-Aldrich) for 30 min at room temperature. Cells were incubated overnight at 4 °C in the dark with primary antibody (see references in Table 3) diluted in 1 % BSA in PBST. […]
Protein extracts were mixed with loading buffer, which consisted of 10 % (v/v) β-mercaptoethanol (Sigma-Aldrich), 10 % SDS, 50 % (v/v) glycerol, 200 mM Tris-HCl pH 6.8 and 0.1 % bromophenol blue (Sigma-Aldrich). […] Ponceau staining and western blot images were analysed and their band intensities quantitated with Image J software.

`O=C(c1cc(Cc2n[nH]c(=O)c3ccccc23)ccc1F)N1CCN(C(=O)C2CC2)CC1` [Olaparib, olaparib] was tested, and the PARP-1 cleavage ([1]; Cx43_HCC1937, 96 h) was “strong PARP-1 cleavage”, the PARP-1 cleavage ([1]; EV_HCC1937, 96 h) was “low cleavage levels” and the “γH2AX (p-Ser139)” value [2] was “significant γH2AX increase”.
